Laboratory results as given in patent US10329309B2, “3-(3H-imidazo[4,5-B]pyridin-2-yl)-1H-pyrazolo[4,3-B]pyridines and therapeutic uses thereof” (Samumed, LLC, priority 2015, dated 2019).

Legend:
Type in all cases: cell-based
[1] = tested on: SW480 colon cancer cells; test: Cell viability assay (CellTiter-Blue), four days; conditions: Homo sapiens, 96 h; for EC50: CellTiter-Blue cell viability; for inhibition at 10 µM: read-out: percent inhibition at 10 μM (given for EC50 of >10 μM)
Outline: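 Approximately 2×10^3 SW480 cells per well are seeded with compound (8 points, threefold steps, top 10 μM) and incubated four days at 37 °C. CellTiter-Blue is then added for about 3 h and fluorescence read. Non-linear regression gives EC50; for values beyond 10 μM, percent inhibition at that concentration is listed.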

[2] = tested on: Wnt activity (Sp5-Luc reporter, SW480 colon carcinoma cells); test: Screening assay for Wnt activity: Sp5-Luc reporter gene assay in SW480 cells; conditions: Homo sapiens, overnight incubation, 10-point dose-response from 10 μM
Outline: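 SW480 cells stably carrying Sp5-Luc reporter (eight TCF/LEF sites) plated at 4,000/well in 1% FBS medium with compound (10-point 1:3 series from 10 μM, 0.1% DMSO) overnight at 37 °C. BrightGlo luminescence normalized to DMSO; EC50 by four-parameter fit, else % inhibition at 10 μM.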

[3] = tested on: primary human fibroblasts derived from IPF patients (LL29 cells), α-smooth muscle actin (αSMA); test: Inhibition of the fibrotic process: TGF-β1-treated primary human fibroblasts from IPF patients, αSMA staining; conditions: Fibroblast, 96 h, 4 days; for EC50: LL29 fibroblasts from IPF patients, TGF-β1 20 ng/mL, inhibition of fibrotic process; for inhibition at 10 µM: LL29 fibroblasts, TGF-β1 treated, read-out: percent inhibition at 10 μM (given for EC50 of >10 μM)
Outline: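 Compound dilutions from 10 μM down to […] are dispensed, LL29 cells added in F12 with 1% FBS, and TGF-β1 (20 ng/mL) follows after 1 h. After 4 days, live-cell αSMA positivity is measured by immunofluorescence and normalized to TGF-β1-treated wells to derive EC50.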

| SMILES | EC50 [1] | EC50 [2] | EC50 [3] | inhibition at 10 µM [3] | inhibition at 10 µM [1] |
| --- | --- | --- | --- | --- | --- |
| Fc1ccc(-c2ccnc3[nH]c(-c4n[nH]c5ccc(-c6cncc(CN7CCCC7)c6)nc45)nc23)cc1 [Compound 42, 3-(7-(4-fluorophenyl)-3H-imidazo[4,5-b]pyridin-2-yl)-5-(5-(pyrrolidin-1-ylmethyl)pyridin-3-yl)-1H-pyrazolo[4,3-b]pyridine] | 1.08 µM | 3.73 µM | 1.85 µM | – | – |
| CC(C)CC(=O)Nc1cncc(-c2ccc3[nH]nc(-c4nc5c(-c6cccc(F)c6)ccnc5[nH]4)c3n2)c1 [Compound 2, N-(5-(3-(7-(3-fluorophenyl)-3H-imidazo[4,5-b]pyridin-2-yl)-1H-pyrazolo [4,3-b]pyridin-5-yl)pyridin-3-yl)-3-methylbutanamide] | 0.4 µM | 0.495 µM | 0.292 µM | – | – |
| Fc1cccc(-c2ccnc3[nH]c(-c4n[nH]c5ccc(-c6cncc(OCCN7CCCC7)c6)nc45)nc23)c1 [Compound 514, 3-(7-(3-Fluorophenyl)-3H-imidazo[4,5-b]pyridin-2-yl)-5-(5-(2-(pyrrolidin-1-yl)ethoxy)pyridin-3-yl)-1H-pyrazolo[4,3-b]pyridine] | 8.65 µM | 4.11 µM | > 10 µM | 0% | – |
| O=C(Nc1cncc(-c2ccc3[nH]nc(-c4nc5c(-c6ccsc6)ccnc5[nH]4)c3n2)c1)c1ccccc1 [Compound 291, N-(5-(3-(7-(Thiophen-3-yl)-3H-imidazo[4,5-b]pyridin-2-yl)-1H-pyrazolo [4,3-b]pyridin-5-yl)pyridin-3-yl)benzamide] | > 10 µM | 0.527 µM | > 10 µM | 42.5% | 2% |
| CN(C)CCOc1cncc(-c2ccc3[nH]nc(-c4nc5c(-c6cccc(F)c6)ccnc5[nH]4)c3n2)c1 [Compound 515, 2-((5-(3-(7-(3-fluorophenyl)-3H-imidazo[4,5-b]pyridin-2-yl)-1H-pyrazolo[4,3-b]pyridin-5-yl)pyridin-3-yl)oxy)-N,N-dimethylethan-1-amine] | 1.1 µM | 2.84 µM | 2.61 µM | – | – |
| O=C(Nc1cncc(-c2ccc3[nH]nc(-c4nc5c(-c6cccs6)ccnc5[nH]4)c3n2)c1)C1CC1 [Compound 356, N-(5-(3-(7-(Thiophen-2-yl)-3H-imidazo[4,5-b]pyridin-2-yl)-1H-pyrazolo [4,3-b]pyridin-5-yl)pyridin-3-yl)cyclopropanecarboxamide] | > 10 µM | 2.28 µM | 4.86 µM | – | 12.4% |
| Fc1cccc(-c2ccnc3[nH]c(-c4n[nH]c5ccc(C6=CCNCC6)nc45)nc23)c1 [Compound 506, 3-(7-(3-fluorophenyl)-3H-imidazo[4,5-b]pyridin-2-yl)-5-(1,2,3,6-tetrahydropyridin-4-yl)-1H-pyrazolo[4,3-b]pyridine] | 2.8 µM | > 10 µM | > 10 µM | 0% | – |
| CC(C)Nc1cncc(-c2ccc3[nH]nc(-c4nc5c(-c6ccoc6)ccnc5[nH]4)c3n2)c1 [Compound 320, 5-(3-(7-(furan-3-yl)-3H-imidazo[4,5-b]pyridin-2-yl)-1H-pyrazolo[4,3-b]pyridin-5-yl)-N-isopropylpyridin-3-amine] | 0.378 µM | 0.341 µM | 0.277 µM | – | – |
| Clc1ccc(-c2ccnc3[nH]c(-c4n[nH]c5ccc(-c6cncc(CN7CCCC7)c6)nc45)nc23)s1 [Compound 1049, 3-(7-(5-chlorothiophen-2-yl)-3H-imidazo[4,5-b]pyridin-2-yl)-5-(5-(pyrrolidin-1-ylmethyl)pyridin-3-yl)-1H-pyrazolo[4,3-b]pyridine] | 2.75 µM | 7.7 µM | 0.681 µM | – | – |
| CN(C)Cc1cncc(-c2ccc3[nH]nc(-c4nc5c(-c6cccs6)ccnc5[nH]4)c3n2)c1 [Compound 349, N,N-dimethyl-1-(5-(3-(7-(thiophen-2-yl)-3H-imidazo[4,5-b]pyridin-2-yl)-1H-pyrazolo[4,3-b]pyridin-5-yl)pyridin-3-yl)methanamine] | 1.16 µM | 3.96 µM | 1.42 µM | – | – |
| COc1cncc(-c2ccc3[nH]nc(-c4nc5c(-c6cccc(F)c6)ccnc5[nH]4)c3n2)c1 [Compound 516, 3-(7-(3-fluorophenyl)-3H-imidazo[4,5-b]pyridin-2-yl)-5-(5-methoxypyridin-3-yl)-1H-pyrazolo[4,3-b]pyridine] | 0.12 µM | 0.338 µM | 1.57 µM | – | – |
| COc1cccc(-c2ccnc3[nH]c(-c4n[nH]c5ccc(-c6cncc(NC(=O)CC(C)(C)C)c6)nc45)nc23)c1 [Compound 1006, N-(5-(3-(7-(3-methoxyphenyl)-3H-imidazo[4,5-b]pyridin-2-yl)-1H-pyrazolo[4,3-b]pyridin-5-yl)pyridin-3-yl)-3,3-dimethylbutanamide] | 1.18 µM | 1.55 µM | 2.49 µM | – | – |
| CC(C)(C)CC(=O)Nc1cncc(-c2ccc3[nH]nc(-c4nc5c(-c6ccccc6F)ccnc5[nH]4)c3n2)c1 [Compound 72, N-(5-(3-(7-(2-fluorophenyl)-3H-imidazo[4,5-b]pyridin-2-yl)-1H-pyrazolo [4,3-b]pyridin-5-yl)pyridin-3-yl)-3,3-dimethylbutanamide] | > 10 µM | 1.99 µM | > 10 µM | 0% | 0% |
| O=C(Nc1cncc(-c2ccc3[nH]nc(-c4nc5c(N6CCCCC6)ccnc5[nH]4)c3n2)c1)C1CC1 [Compound 188, N-(5-(3-(7-(Piperidin-1-yl)-3H-imidazo[4,5-b]pyridin-2-yl)-1H-pyrazolo [4,3-b]pyridin-5-yl)pyridin-3-yl)cyclopropanecarboxamide] | 3.91 µM | 4 µM | > 10 µM | 0% | – |
| Fc1cccc(-c2ccnc3[nH]c(-c4n[nH]c5ccc(-c6cnccn6)nc45)nc23)c1 [Compound 520, 3-(7-(3-fluorophenyl)-3H-imidazo[4,5-b]pyridin-2-yl)-5-(pyrazin-2-yl)-1H-pyrazolo[4,3-b]pyridine] | 2.04 µM | 3.62 µM | 5.33 µM | – | – |
| Oc1cncc(-c2ccc3[nH]nc(-c4nc5c(-c6cccc(F)c6)ccnc5[nH]4)c3n2)c1 [Compound 517, 5-(3-(7-(3-fluorophenyl)-3H-imidazo[4,5-b]pyridin-2-yl)-1H-pyrazolo[4,3-b]pyridin-5-yl)pyridin-3-ol] | 0.768 µM | 0.423 µM | 1.15 µM | – | – |
| COc1cccc(-c2ccnc3[nH]c(-c4n[nH]c5ccc(-c6cccnc6)nc45)nc23)c1 [Compound 994, 3-(7-(3-methoxyphenyl)-3H-imidazo[4,5-b]pyridin-2-yl)-5-(pyridin-3-yl)-1H-pyrazolo[4,3-b]pyridine] | 0.897 µM | 1.87 µM | 0.59 µM | – | – |
| NC1CN(c2cncc(-c3ccc4[nH]nc(-c5nc6c(-c7cccc(F)c7)ccnc6[nH]5)c4n3)n2)C1 [Compound 510, 1-(6-(3-(7-(3-fluorophenyl)-3H-imidazo[4,5-b]pyridin-2-yl)-1H-pyrazolo[4,3-b]pyridin-5-yl)pyrazin-2-yl)azetidin-3-amine] | 1.6 µM | 3.71 µM | > 10 µM | 0% | – |
| Cc1ccc(-c2ccnc3[nH]c(-c4n[nH]c5ccc(-c6cncc(N)c6)nc45)nc23)s1 [Compound 395, 5-(3-(7-(5-methylthiophen-2-yl)-3H-imidazo[4,5-b]pyridin-2-yl)-1H-pyrazolo[4,3-b]pyridin-5-yl)pyridin-3-amine] | 0.084 µM | 0.047 µM | 0.097 µM | – | – |
| CS(=O)(=O)NCc1cc(F)cc(-c2ccnc3[nH]c(-c4n[nH]c5ccc(-c6cncc(CNCc7ccccc7)c6)nc45)nc23)c1 [Compound 500, N-(3-(2-(5-(5-((Benzylamino)methyl)pyridin-3-yl)-1H-pyrazolo[4,3-b]pyridin-3-yl)-3H-imidazo[4,5-b]pyridin-7-yl)-5-fluorobenzyl)methanesulfonamide] | 8.84 µM | 3.58 µM | 9.26 µM | – | – |
| CCCCC(=O)Nc1cncc(-c2ccc3[nH]nc(-c4nc5c(-c6ccoc6)ccnc5[nH]4)c3n2)c1 [Compound 327, N-(5-(3-(7-(furan-3-yl)-3H-imidazo[4,5-b]pyridin-2-yl)-1H-pyrazolo[4,3-b]pyridin-5-yl)pyridin-3-yl)pentanamide] | > 10 µM | 0.803 µM | 0.277 µM | – | 4.9% |
| COc1cccc(-c2ccnc3[nH]c(-c4n[nH]c5ccc(-c6cncc(NC(=O)C7CCCCC7)c6)nc45)nc23)c1 [Compound 1012, N-(5-(3-(7-(3-Methoxyphenyl)-3H-imidazo[4,5-b]pyridin-2-yl)-1H-pyrazolo [4,3-b]pyridin-5-yl)pyridin-3-yl)cyclohexanecarboxamide] | 2.91 µM | 1.91 µM | 1.17 µM | – | – |
